We go through one substance from patent US9458194B2, “Compounds useful in the treatment and/or care of the skin and their cosmetic or pharmaceutical compositions” (Lubrizol Advanced Materials, Inc., priority 2013, dated 2016).

One experiment deals with elastin. In words: Elastin synthesis in human dermal fibroblasts (Fastin Elastin Assay). It counts as cell-based. The settings on record: 0.01 μg/ml, 48 hours, vs negative control. As for the experimental part:
Stimulation of elastin synthesis induced by Ac-L-Asp-L-Val-L-Lys-L-Tyr-OH was evaluated by means of a quantitative method of staining, Fastin Elastin Assay (Tebu-Bio). Human dermal fibroblasts were trypsinized and seeded at a density of 7×10^4 cells/well in 6-well plates. After 72 hours of incubation at 37° C., 5% CO2, with a humidified atmosphere, a new medium was added with 0.01 μg/mL Ac-L-Asp-L-Val-L-Lys-L-Tyr-OH. Untreated cells were used as negative controls and cells treated with TGF-1β (Peprotech) were used as positive controls. The cells were incubated for an additional 48 hours at 37° C., 5% CO2, with humidified atmosphere. Subsequently, the elastin was solubilized and extracted, for which the cells were washed twice with PBS (Sigma) and a solution was added to uncouple the cells (Cell Dissociation Solution, Sigma). The suspension of cells was transferred to centrifuge tubes, 1 M Oxalic Acid was added provided by the kit and they were incubated at 100° C. for 1 hour. Once the elastin became soluble, a calibration curve was prepared with the elastin provided with the kit. From that point, the samples and dilutions of the calibration curve were processed following the kit instructions to isolate and stain the elastin. Lastly, the dye was extracted and the absorbency reading was carried out at a wave length of 540 nm in a TECAN GENios spectrophotometric reader.

Experiment [1] relates to human fibulin-5 gene promoter. In words: Luminescence assay of human fibulin-5 gene promoter activation (Firefly luciferase). The class given is cell-based. The conditions noted are these: 16-24 hours. As for the experimental part:
The effect of the compounds of the invention on the activity of the fibulin-5 and LOXL1 promoters was studied and compared to the levels of basal expression of the untreated cells (negative control) and with the effect of Interleukin-1β (IL-1β) in the same conditions.
Cells from an epithelial cell line doubly transfected with fibulin-5 and LOXL1 human promoters in which the luciferase gene is under the regulatory control of said promoters (4×10^4 cells/well) were seeded in a white plate and in a 96-well transparent plate, both treated with polylysine, and were incubated in Dulbecco's Modified Eagle Medium (DMEM-Glutamax™), with 10% of FBS, 1% Penicillin-Streptomycin (P/S), 1 mg/ml of Geneticin® (G418) and […] at 37° C. in at atmosphere with 5% CO2. After the incubation, the cells were incubated for 6 hours at 37° C. in at atmosphere with 5% CO2 with DMEM without serum. Then, this medium was removed and the cells were treated with different compounds at 0.1 mg/ml, 0.5 mg/ml, 1 mg/ml or 2 mg/mL in DMEM/1% FBS for 16-24 hours. As a positive control to activate the fibulin-5 and LOXL1 promoters 10 ng/ml of IL-1β were used and as a negative control untreated cells were used, just with DMEM/1% FBS. The incubations and treatments were carried out in parallel in the white plate and the transparent plate and in triplicate for each condition. After the treatment, the relative light units per second were determined (RLU/s) in the white plate by means of consecutive quantification of the activities of Firefly luciferase (fibulin-5 promoter) and Renilla luciferase (LOXL1 promoter), and the number of total cells/well in the transparent plate by means of staining with Crystal Violet (CV). To determine the Firefly and Renilla luciferase activities the Dual-Glo Luciferase Assay System kit by Promega was used. The cells were briefly lysed and the Firefly luciferase substrate was added. After incubating for 10 min at 25° C., the RLU/s were quantified by luminescence reader (Lumistar-BMG). Then the Firefly signal was extinguished and the Renilla luciferase substrate was added. After incubating for 5 min at 25° C., the RLU/s were quantified by the same luminescence reader. With regard to the determination of the total number of cells by Crystal Violet, the CV dyes the DNA of the cells and the quantity of dye taken by the cells can be measured in an absorbency reader at 630 nm (Multiskan Ascent). The color obtained is directly proportional to the total number of cells per well. The cells were briefly incubated with 0.05% CV plus 4% Formalin for 20 minutes and after several washes with Milli-Q water, the cells were left to dry for 1-2 hours and then 0.1 M of HCl was added for its immediate reading. The RLU/s of the luciferases corresponding to each promoter were normalized by the average of the total number of cells per condition. Three independent assays with 3 measurements per assay were carried out for Ac-L-Asp-L-Val-L-Lys-L-Tyr-OH at 0.1 mg/mL and 1 mg/mL. 1 assay with 3 measurements was carried out for the other compounds and concentrations.
The increase in the activity of the promoters with regard to the levels of expression of the negative control was determined.

“And” between values parts separate entries of the source, which are not always exact repeats. Identical values can stand only once.

As for “Ac-L-Asp-L-Val-L-Lys-L-Tyr-OH (Ac-DVKY-OH)”, the “INCREASE IN ELASTIN SYNTHESIS” value in the experiment with elastin is 21.7%. Also, the “Increase in the activity of the human promoter of the FIBULIN 5 gene with regard to the negative control” value in experiment [1] (0.1 mg/mL) was 7.46%; in experiment [1] (1 mg/mL), 19% and 19.40%; in experiment [1] (2 mg/mL), 53.20%.
